According to the NIST ThermoML archive (doi:10.1016/j.jct.2006.02.001):
± gives the expanded uncertainty stated by the source.

Legend:
[1] = xn = mol fraction of the nth substance listed; conditions: 101 kPa, Liquid
[2] = refractive index (Na D-line) (dimensionless); xn = mol fraction of the nth substance listed; conditions: 101 kPa, Liquid

COc1ccccc1 [anisole] + Cc1ccccc1
Conditions | mass density, 288.15 K [kg/m3] | mass density, 293.15 K [kg/m3] | mass density, 298.15 K [kg/m3] | mass density, 303.15 K [kg/m3] | refractive index, 288.15 K | refractive index, 293.15 K | refractive index, 298.15 K | refractive index, 303.15 K
[1], x1 = 0.1179 | 887.1 ± 0.78 | 882.58 ± 0.8 | 877.96 ± 0.82 | 873.25 ± 0.84 | – | – | – | –
[1], x1 = 0.2098 | 899.23 ± 0.74 | 894.67 ± 0.76 | 890.04 ± 0.78 | 885.33 ± 0.8 | – | – | – | –
[1], x1 = 0.3078 | 912.01 ± 0.69 | 907.42 ± 0.71 | 902.81 ± 0.73 | 898.06 ± 0.75 | – | – | – | –
[1], x1 = 0.4082 | 924.96 ± 0.65 | 920.33 ± 0.67 | 915.72 ± 0.69 | 910.95 ± 0.71 | – | – | – | –
[1], x1 = 0.5157 | 938.67 ± 0.61 | 934.03 ± 0.63 | 929.43 ± 0.64 | 924.67 ± 0.66 | – | – | – | –
[1], x1 = 0.6172 | 951.49 ± 0.57 | 946.82 ± 0.59 | 942.24 ± 0.6 | 937.46 ± 0.62 | – | – | – | –
[1], x1 = 0.7286 | 965.32 ± 0.53 | 960.65 ± 0.55 | 956.15 ± 0.56 | 951.37 ± 0.58 | – | – | – | –
[1], x1 = 0.8575 | 981.16 ± 0.49 | 976.45 ± 0.5 | 971.96 ± 0.52 | 967.26 ± 0.54 | – | – | – | –
[1], x1 = 0.917 | 988.36 ± 0.47 | 983.65 ± 0.49 | 979.17 ± 0.5 | 974.46 ± 0.52 | – | – | – | –
[1], x1 = 1 | 998.44 ± 0.45 | 993.65 ± 0.46 | 989.15 ± 0.48 | 984.37 ± 0.5 | – | – | – | –
[2], x1 = 0.1179 | – | – | – | – | 1.503 ± 0.0096 | 1.4997 ± 0.0096 | 1.4971 ± 0.0096 | 1.4946 ± 0.0096
[2], x1 = 0.2098 | – | – | – | – | 1.5056 ± 0.0096 | 1.5017 ± 0.0096 | 1.4992 ± 0.0096 | 1.4966 ± 0.0096
[2], x1 = 0.3078 | – | – | – | – | 1.5083 ± 0.0096 | 1.5038 ± 0.0096 | 1.5012 ± 0.0096 | 1.4987 ± 0.0096
[2], x1 = 0.4082 | – | – | – | – | 1.511 ± 0.0097 | 1.5059 ± 0.0096 | 1.5033 ± 0.0096 | 1.5008 ± 0.0096
[2], x1 = 0.5157 | – | – | – | – | 1.5138 ± 0.0097 | 1.5081 ± 0.0096 | 1.5054 ± 0.0096 | 1.5029 ± 0.0096
[2], x1 = 0.6172 | – | – | – | – | 1.5163 ± 0.0097 | 1.5099 ± 0.0097 | 1.5061 ± 0.0096 | 1.5049 ± 0.0096
[2], x1 = 0.7286 | – | – | – | – | 1.5192 ± 0.0097 | 1.5122 ± 0.0096 | 1.5095 ± 0.0096 | 1.5071 ± 0.0096
[2], x1 = 0.8575 | – | – | – | – | 1.5223 ± 0.0097 | 1.5145 ± 0.0097 | 1.5118 ± 0.0096 | 1.5094 ± 0.0096
[2], x1 = 0.917 | – | – | – | – | 1.5236 ± 0.0097 | 1.5155 ± 0.0097 | 1.5135 ± 0.0096 | 1.5104 ± 0.0096
[2], x1 = 1 | – | – | – | – | 1.5256 ± 0.0098 | 1.5169 ± 0.0097 | 1.5141 ± 0.0096 | 1.5117 ± 0.0096

COc1ccccc1 [anisole] + Cc1cc(C)cc(C)c1
x1 = 1
Conditions | mass density, 288.15 K [kg/m3] | mass density, 293.15 K [kg/m3] | mass density, 298.15 K [kg/m3] | mass density, 303.15 K [kg/m3] | refractive index, 288.15 K | refractive index, 293.15 K | refractive index, 298.15 K | refractive index, 303.15 K
[1] | 998.44 ± 0.45 | 993.65 ± 0.46 | 989.15 ± 0.48 | 984.37 ± 0.5 | – | – | – | –
[2] | – | – | – | – | 1.5256 ± 0.0098 | 1.5169 ± 0.0097 | 1.5141 ± 0.0096 | 1.5117 ± 0.0096
